The values below come from ChEMBL document CHEMBL1136240, “Synthesis and anthelmintic activity of cyclohexadepsipeptides with (S,S,S,R,S,R)-configuration” (Bioorg Med Chem Lett, 2003).

For orientation: logD means lipophilicity at a set pH, counting ionised and neutral species. Lower therefore signals lower lipophilicity.

For series [1], the system named is Ovis aries. As to the kind of experiment: In vivo antihelminthic activity against Haemonchus contortus in sheep at a dose of 0.250 mg kg-1. It counts as functional. As to conditions: dose 0.25 mg kg-1.
Series [2] can be described thus: LogP (Octanol-water partition coefficient) was measured at pH 2.3. The series is classed as physicochemical.
The subject of series [3] is Ovis aries. The experiment in a line: In vivo antihelminthic activity against Haemonchus contortus in sheep at a dose of 0.50 mg kg-1. As to conditions: dose 0.5 mg kg-1. It counts as functional.
Series [4] relates to Ovis aries. As to the kind of experiment: In vivo antihelminthic activity against Haemonchus contortus in sheep at a dose of 0.05 mg kg-1. It counts as functional.
The subject of series [5] is Ovis aries. As to the kind of experiment: In vivo antihelminthic activity against Haemonchus contortus in sheep at a dose of 0.10 mg kg-1. The series is classed as functional. Conditions: dose 0.1 mg kg-1.

Some results are limits rather than exact numbers.

Consider `CCC(C)[C@H]1C(=O)O[C@H](C)C(=O)N(C)[C@@H](C(C)CC)C(=O)O[C@H](C)C(=O)N(C)[C@@H](C(C)CC)C(=O)OCC(=O)N1C` (stereo partly specified), for which, in the series with Ovis aries [1], the Egg reduction result is “>=95%”. In series [2], this compound returned a pH-dependent lipophilicity (logD) of 4.

On to `CCC(C)[C@H]1C(=O)O[C@H](C(C)C)C(=O)N(C)[C@@H](C(C)CC)C(=O)O[C@H](C(C)C)C(=O)N(C)[C@@H](C(C)CC)C(=O)O[C@H](C(C)C)C(=O)N1C` (stereo partly specified), for which the Egg reduction result in the series with Ovis aries [3] is listed as “>=95%”.

On to `CCC(C)[C@H]1C(=O)O[C@H](C)C(=O)N(C)[C@@H](C)C(=O)O[C@H](C)C(=O)N(C)[C@@H](C(C)CC)C(=O)O[C@H](C)C(=O)N1C` (stereo partly specified), for which the Egg reduction entry in the series with Ovis aries [4] is “>=95%”. The same compound returned a logD in series [2] of 3.26.

Take `CCC(C)[C@H]1C(=O)O[C@H](C)C(=O)N(C)[C@@H](C(C)CC)C(=O)O[C@H](C)C(=O)N(C)[C@@H](C(C)CC)C(=O)O[C@H](C)C(=O)N1C` (stereo partly specified): the Egg reduction entry with Ovis aries [3] was “>=95%”. Besides, the logD in series [2] was determined as 4.2.

Consider `CCCC[C@H]1OC(=O)[C@H](C(C)CC)N(C)C(=O)[C@@H](C)OC(=O)[C@H](C(C)CC)N(C)C(=O)[C@@H](C)OC(=O)[C@H](C(C)CC)N(C)C1=O` (stereo partly specified), for which the Egg reduction entry in the series with Ovis aries [5] is listed as “>=95%”. Also, the log distribution coefficient (logD) in series [2] was 5.14.

On to `CC[C@H](C)[C@H]1C(=O)O[C@H](C)C(=O)N(C)[C@@H]([C@@H](C)CC)C(=O)O[C@H](C)C(=O)N(C)[C@@H](C)C(=O)OC(C)C(=O)N1C` (single isomer, unassigned), for which the Egg reduction entry in the series on Ovis aries [5] is recorded as “>=95%”. This compound also had a logD in series [2] of 3.1.
